Results on 3 compounds are retold here after publication doi:10.1101/356956v1 (biorxiv, 2018).

SMILES strings stand for the structures.

This assay has as its target T1, recombinant human caspase-3 (Homo sapiens, UniProt P42574).
T1 sequence (P42574 29-175): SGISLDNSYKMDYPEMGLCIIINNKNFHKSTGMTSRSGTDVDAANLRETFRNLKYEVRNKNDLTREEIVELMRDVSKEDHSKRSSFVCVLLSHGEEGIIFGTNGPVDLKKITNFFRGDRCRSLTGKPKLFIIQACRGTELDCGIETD
T1 sequence (P42574 176-277): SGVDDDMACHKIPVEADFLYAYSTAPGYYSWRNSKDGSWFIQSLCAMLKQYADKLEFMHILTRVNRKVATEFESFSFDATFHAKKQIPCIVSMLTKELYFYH
The assay can be described thus: Caspase-Glo […] luminescence assay, dose-response. Format: biochemical.
On to `CC(C(=O)O)c1cccc(Oc2ccccc2)c1` (stereo not drawn) [Fenoprofen], for which the IC50 (as a rule, the concentration that gives 50% inhibition) was determined as 47 ± 6.07 µM.
As for `CC(C(=O)O)c1ccc2c(c1)Cc1cccnc1O2` (stereo not drawn) [Pranoprofen], the figure is 54.3 ± 0.6 µM; as for `O=C(O)c1cc(-c2ccc(F)cc2F)ccc1O` [Diflunisal], 10.4 ± 0.5 µM.
